Experimental data published in publication PMC8397634 (Journal of Natural Medicines, 2021).
Values joined by “and” are separate entries in the source; they are usually repeats but may differ in a detail not shown here. Equal entries are not always repeated. “Also recorded” adds a separate entry of the source. Where two headings read alike, the source gives them in different places.

Key:
[1] = tested on: zebrafish (Danio rerio; strain AB); conditions: for Time spent at the bottom of the tank during NTT / anxiolytic-like effect: 30 mg/L
Procedure: The NTT conditions closely matched the most commonly used conditions described by. In brief, adult male and female wild-type zebrafish were treated with the compounds for 20 min in a final volume of 50 mL in a 250-mL treatment beaker, one fish at a time. The fish were briefly rinsed in fresh system water, and then immediately transferred to a trapezoidal tank (14.6-cm height × 5.5-cm width × 27.9-cm top length and × 23.6-cm bottom length) filled with 1.5 L system water. The behavior of the fish was monitored for the next 5 min using the Noldus EthoVision XT system (Wageningen, Netherlands), with the camera placed approximately 1 m from the test tank. The tanks were uniformly illuminated from above at approximately 200 lx, reported to be the optimal illumination condition for NTT [23]. Background noise was kept at a minimum during the test. All experimental parameters were monitored closely and kept as consistent as possible throughout the study. The part of the tank filled with water (11.5-cm height) was virtually divided into top, center, and bottom of equal heights (approximately 3.8 cm per segment) for the analyses. The average time spent at the top and bottom portions of the tank was analyzed to determine the anxiety-like behavior of fish. The average total distance traveled and freezing time (as defined by a complete cessation of movement except for gills and eyes) were calculated to determine the effects of the compounds on the general behavior of fish. The analyses were conducted for 1-min time bins. To account for any day-to-day variability in fish behavior, fish treated with vehicle were tested on the same day as the compounds. […] A minimum of 12 fish (6 females and 6 males) per condition were used for the study. The actual sample size per condition is indicated in Online Resource 1. […] The experimenters were blind to the test conditions. The NTT was validated with buspirone, a clinical anxiolytic drug, as previously described.
If not, the concentration was reduced until no obvious signs of tolerability problems were observed. […] The concentrations were calculated based on the free base molecular weight.
Two-way repeated measures analysis of variance (ANOVA) with Dunnett post hoc was used for the 1-min binned analysis of the zebrafish NTT data. Treatment was one factor, and time was the second factor. […] Thus, male and female datasets were combined for the final analyses. […] The EC50 values were determined by applying the nonlinear regression analysis. All analyses were conducted using GraphPad Prism v8.2.1 (GraphPad Software, San Diego, CA, USA).

[2] = Brain bioavailability assay in zebrafish (UPLC-HRMS of brain homogenate); format: in vivo, Danio rerio; conditions: zebrafish brain after 20-min exposure, linear relationship assumed, mean ± SEM; for concentration at 20 min: both sexes, zebrafish (Danio rerio), 1 mg/L, read-out: Relative brain level per 1 mg/L compound
Procedure: Four fish (2 males and 2 females) per compound were used to determine the brain bioavailability of the compounds. Immediately after the 20-min compound treatment, the zebrafish were rinsed briefly to remove excessive compound on their body and terminated with 250 mg/L tricaine (CAS No. 886-86-2; Sigma). The fish were decapitated at the level of the gills using a surgical knife. The head was turned dorsal side down, and soft tissue was removed from the ventral side of the skull until the base of the skull was exposed. The skull was broken open and the bone from the ventral side of the brain was removed. The brain was then placed in a microcentrifuge tube, weighed, snap-frozen in liquid nitrogen, and stored at – 80 °C until the analysis.
Briefly, on the day of analysis, the brain samples were defrosted, resuspended in a methanol solution (2:1 [v/v] methanol:MilliQ water), and homogenized with vigorous agitation and ultrasonication (5 min each). The homogenate was centrifuged at 15,000 × rpm for 10 min, and the supernatant was analyzed using a UPLC-Q Exactive Orbitrap-HRMS system (Thermo Fisher Scientific™, Bremen, Germany). Chromatographic separation was achieved on a Synergi™ 4-µm Hydro-RP 80 Å, L.C. Column (250 × 4.6 mm; Phenomenex Inc., Torrance, CA, USA) with 0.1% formic acid in water (mobile phase A) and 0.1% formic acid in acetonitrile (mobile phase B). A gradient method at a 500 µL/min flow rate was applied as follows: (1) 5% B for 1 min, and (2) increase to 95% B over 7 min and hold for 2 min. The injection volume was 5 μL. The mass spectrometer was operated in electrospray positive mode (ESI, Thermo Fisher Scientific), while data acquisition was performed using the parallel reaction monitoring (PRM) and full scan modes. The source settings were set as follows: sheath gas flow rate = 60 psi; aux gas flow rate = 20 arbitrary units; spray voltage = 3.5 kV; capillary temperature = 280 °C; and sweep gas flow rate = 1. The full scan mode parameters were set as follows: resolution = 35,000 FWHM at 200 m/z; AGC target = 1E6; maximum injection time = 110 ms; and scan range = 100–350 m/z. The chromatographic and Orbitrap MS parameters for PRM analysis were the same as those in the full scan mode, except for: AGC target = 2E5; maximum IT = 60 ms; and resolution = 17,500 FWHM at 200 m/z. The XCalibur™ v4.0.27.19 software (Thermo Fisher Scientific) and TraceFinder™ v4.1 Forensic (Thermo Fisher Scientific, San José, CA, USA) were used for system control and data processing, respectively. The Q Exactive 2.8 SP 1 software (Thermo Fisher Scientific) was used to control the mass spectrometer.

[3] = target: T1, α4β2 nAChRs (Homo sapiens, UniProt P17787+P43681); experiment: In vitro nAChR functional assay (automated patch-clamp, CHO cells); format: cell-based; conditions: for Emax: CHO, read-out: % activation of α4β2 nAChR (normalized to nicotine)
Procedure: Electrophysiological responses were recorded using an automated patch-clamp Patchliner Octo® system (Nanion Technologies, Munich, Germany) equipped with two EPC-10 Quadro patch-clamp amplifiers (HEKA Elektronik, Lambrecht, Germany) as described previously. Chinese hamster ovarian (CHO) cells stably expressing human α4β2 nAChRs (Charles River Laboratories, Wilmington, MA, USA) were used. All experiments were performed at room temperature (24 °C) and repeated at least three times. Data were analyzed using Patchmaster software (HEKA Elektronik). Offline data analysis was performed in Apache OpenOffice™ (v4.1.2; […]). Igor Pro software (v6.2.2.2; WaveMetrics, Lake Oswego, OR, USA) was used to determine EC50 values. […] The average values were then fitted to the Hill equation: I=Baseline+X^∧nH(Imax-Baseline)/X^∧nH+EC50^∧nH, where I is the current response, Baseline is the minimal current response, X is the agonist concentration, nH is the Hill coefficient, Imax is the maximal current, and EC50 is the agonist concentration producing half-maximal activation. […]

[4] = tested on: other molecular targets (175 in vitro binding and enzymatic assays); experiment: In vitro molecular target profiling (175 binding and enzymatic assays); conditions: 10 µM single concentration; 175 assays; effect greater than 50% considered significant
Procedure: (§1) All binding and functional assays for molecular target characterization were conducted by Eurofins Cerep SA (Celle-Lévescault, France) and Eurofins Panlabs Discovery Services Taiwan, Ltd. (New Taipei City, Taiwan) using their standard in vitro binding and functional assays (Online Source 2). The radioligand displacement binding assays employed the gold-standard filtration method using membrane preparations from stable cell lines expressing human or rodent target proteins to determine the interaction of the compounds with specific receptors, channels, and transporters. For this purpose, the competitive binding of test compounds against a [^125I]-, [^3H]-, or [^35S]-labeled agonist and/or antagonist was determined. The specific list of radiolabeled ligands and experimental conditions are summarized in Online Source 2. A single concentration of each compound (10 µM in 0.1% DMSO) was used for the screen. […] Negative values were considered to be an artifact arising from, for example, compounds interfering with the assay readout.
3.1. Experimental Conditions
In Vitro Pharmacology: Binding Assays
(§2) Assay Source Ligand Conc. Kd Non Specific Incubation Detection Bibl.

[5] = target: T2, muscle-type nAChR (Homo sapiens, UniProt P02708+P07510+Q07001); experiment: Muscle-type nAChR radioligand binding (target profiling); conditions: 10 µM single concentration; effect greater than 50% considered significant
T2 construct: TE671 cells; host or cells: TE671 cells (endogenous)
Procedure: as §1, §2

[6] = target: T1, α4β2 nAChRs; experiment: In vitro α4β2 nAChR radioligand displacement binding assay; parameters: host or cells: SH-SY5Y cells (human recombinant), membrane preparation; conditions: for Binding to α4β2 nAChR in target profiling: 10 µM single concentration, effect greater than 50% considered significant
Procedure: as §1, §2

[7] = tested on: α7 nAChR; conditions: cited from earlier work; for α7 nAChR agonist activity: ref 2 (Alijevic, et al.)
[8] = all concentrations tested, 20-min treatment, 5-min test, vs vehicle control
[9] = other: immersion in compound solution (waterborne exposure)
[10] = CHO cells stably expressing human α4β2 nAChRs, patch clamp, 24 °C, mean ± SEM (Fig. 1), read-out: α4β2 nAChR EC50
[11] = highest concentration tested (10 mg/L), 20-min treatment

T1 sequence (P43681 29-627 limits assumed): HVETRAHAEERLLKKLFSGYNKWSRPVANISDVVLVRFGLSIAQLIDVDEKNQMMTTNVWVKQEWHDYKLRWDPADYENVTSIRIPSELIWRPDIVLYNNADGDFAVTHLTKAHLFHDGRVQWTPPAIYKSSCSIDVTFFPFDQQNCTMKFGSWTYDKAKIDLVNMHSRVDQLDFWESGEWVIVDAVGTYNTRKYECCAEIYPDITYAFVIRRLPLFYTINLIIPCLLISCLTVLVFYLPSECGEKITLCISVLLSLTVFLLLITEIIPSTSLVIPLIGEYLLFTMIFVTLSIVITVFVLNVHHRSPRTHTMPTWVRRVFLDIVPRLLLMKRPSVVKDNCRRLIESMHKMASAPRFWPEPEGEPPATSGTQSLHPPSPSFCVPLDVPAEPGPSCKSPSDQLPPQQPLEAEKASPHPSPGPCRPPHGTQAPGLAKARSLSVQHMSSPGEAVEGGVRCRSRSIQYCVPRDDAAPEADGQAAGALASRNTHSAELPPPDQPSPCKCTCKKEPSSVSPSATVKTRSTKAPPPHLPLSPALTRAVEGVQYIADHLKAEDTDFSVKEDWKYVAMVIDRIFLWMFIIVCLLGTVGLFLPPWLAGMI
T1 sequence (P17787 26-502): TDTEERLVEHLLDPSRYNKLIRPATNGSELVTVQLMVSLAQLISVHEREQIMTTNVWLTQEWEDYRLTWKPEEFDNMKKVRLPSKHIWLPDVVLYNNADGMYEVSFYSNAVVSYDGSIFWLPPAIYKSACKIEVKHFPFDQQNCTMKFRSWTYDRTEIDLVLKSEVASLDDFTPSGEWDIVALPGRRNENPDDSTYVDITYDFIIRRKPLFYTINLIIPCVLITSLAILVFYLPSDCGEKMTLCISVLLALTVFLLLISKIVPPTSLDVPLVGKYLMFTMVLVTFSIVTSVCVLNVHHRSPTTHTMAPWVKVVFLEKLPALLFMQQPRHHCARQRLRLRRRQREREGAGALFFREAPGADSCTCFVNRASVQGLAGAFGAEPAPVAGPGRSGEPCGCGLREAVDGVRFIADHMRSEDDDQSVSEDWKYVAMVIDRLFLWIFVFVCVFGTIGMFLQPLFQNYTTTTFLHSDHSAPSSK
T2 sequence (P02708 21-457): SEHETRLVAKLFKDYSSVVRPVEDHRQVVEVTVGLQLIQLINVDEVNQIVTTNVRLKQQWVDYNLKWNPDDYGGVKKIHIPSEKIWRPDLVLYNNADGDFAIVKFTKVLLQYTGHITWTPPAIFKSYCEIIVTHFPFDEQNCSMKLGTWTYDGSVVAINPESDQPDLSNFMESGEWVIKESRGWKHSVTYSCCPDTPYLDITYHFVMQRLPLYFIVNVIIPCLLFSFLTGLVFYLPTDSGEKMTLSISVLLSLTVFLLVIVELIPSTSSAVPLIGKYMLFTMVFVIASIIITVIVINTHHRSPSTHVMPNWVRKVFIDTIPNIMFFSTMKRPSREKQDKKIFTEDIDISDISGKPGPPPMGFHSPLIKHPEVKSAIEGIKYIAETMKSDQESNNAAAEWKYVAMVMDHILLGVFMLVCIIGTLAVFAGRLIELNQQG
T2 sequence (Q07001 22-517): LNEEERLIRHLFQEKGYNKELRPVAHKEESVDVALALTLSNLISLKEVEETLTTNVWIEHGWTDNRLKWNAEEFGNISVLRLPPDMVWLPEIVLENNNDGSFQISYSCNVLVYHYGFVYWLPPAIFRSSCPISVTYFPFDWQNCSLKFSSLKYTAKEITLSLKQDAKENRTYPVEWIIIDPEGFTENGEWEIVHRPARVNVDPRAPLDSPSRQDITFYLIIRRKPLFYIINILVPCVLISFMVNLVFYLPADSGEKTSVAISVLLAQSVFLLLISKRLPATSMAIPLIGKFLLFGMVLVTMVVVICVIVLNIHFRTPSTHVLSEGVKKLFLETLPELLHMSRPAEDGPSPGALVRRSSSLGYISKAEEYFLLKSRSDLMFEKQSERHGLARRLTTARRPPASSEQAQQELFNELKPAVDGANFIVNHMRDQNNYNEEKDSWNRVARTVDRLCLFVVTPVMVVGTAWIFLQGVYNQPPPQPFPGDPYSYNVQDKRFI
T2 sequence (P07510 23-517): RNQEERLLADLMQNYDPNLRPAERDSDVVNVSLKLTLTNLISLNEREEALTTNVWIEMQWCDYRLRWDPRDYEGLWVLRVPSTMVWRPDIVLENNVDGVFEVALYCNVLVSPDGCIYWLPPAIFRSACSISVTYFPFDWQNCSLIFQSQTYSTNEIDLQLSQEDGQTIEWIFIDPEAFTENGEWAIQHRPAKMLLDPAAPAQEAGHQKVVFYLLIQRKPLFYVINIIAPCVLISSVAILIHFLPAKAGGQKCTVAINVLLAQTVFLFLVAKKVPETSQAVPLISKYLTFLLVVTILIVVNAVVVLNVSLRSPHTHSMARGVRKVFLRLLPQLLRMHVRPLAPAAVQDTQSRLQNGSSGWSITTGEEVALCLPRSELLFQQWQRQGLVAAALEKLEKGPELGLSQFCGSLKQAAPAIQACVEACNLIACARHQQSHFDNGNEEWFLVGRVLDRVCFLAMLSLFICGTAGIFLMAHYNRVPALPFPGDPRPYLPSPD

O=C1CC2(CCCC2)CC(=O)N1CCCCN1CCN(c2ncccn2)CC1 [Buspirone, buspirone, reference compound]
Time spent at the bottom of the tank during NTT / anxiolytic-like effect ([1]; 20-min treatment): consistent anxiolytic-like effect across all time points
Freezing response during NTT ([1]; 100 mg/L): increased the freezing response at 1, 2, and 5 min
Total distance traveled during NTT ([1]; 100 mg/L): reduced the total distance traveled at 1, 4, and 5 min
Time spent at the bottom of the tank during NTT [1, 8]: either reduced the time spent on the bottom or increased the time spent on the top at multiple time points

CNCC/C=C/c1cccnc1 [Metanicotine, metanicotine]
Time spent at the bottom of the tank during NTT [1, 8]: no significant effect
concentration at 20 min ([2]; in vivo): 70 ± 10 ng/g
Relative brain level per 1 mg/L compound [2]: less than 0.1 ng/mg tissue
Emax [3]: 100%
EC50 ([3]; α4β2 nAChR EC50): 19.5 ± 6.4 µM

( ±)-nornicotine
Time spent at the bottom of the tank during NTT [1, 8]: no significant effect
% activation of α4β2 nAChR (normalized to nicotine) [3]: 44%

CN1C(=O)CC[C@H]1c1cccnc1 [Cotinine, (–)-cotinine]
Binding to or regulation of other molecular targets [4]: did not bind or regulate the activities of other molecular targets
Binding to muscle-type nAChR in target profiling [5]: specific binding
Binding to α4β2 nAChR in target profiling [6]: specific binding
IC50 ([6]; n = 3, read-out: α4β2 nAChR IC50 (binding)): 9.9 µM
Time spent at the bottom of the tank during NTT ([1]; 100 mg/L, 20-min treatment): reduced the overall time spent at the bottom
Concentration needed for anxiolytic-like effect relative to nicotine ([1]; NTT): > 300 fold
concentration at 20 min [2, 9]: 20 ± 10 ng/g
Relative brain level per 1 mg/L compound [2]: less than 0.1 ng/mg tissue
EC50 [3, 10]: 85.3 µM
Emax [3]: 59%

c1cncc([C@@H]2CCCCN2)c1 [Anabasine, ( +)-Anabasine]
Time spent at the bottom of the tank during NTT [1, 8]: no significant effect
concentration at 20 min ([2]; in vivo): 230 ± 70 ng/g
α7 nAChR activation relative to maximum receptor activation by nicotine or anatabine [7]: approximately a third
α7 nAChR agonist activity [7]: weak α7 nAChR agonist
Emax [3]: 7%
effectiveness in activating α4β2 nAChRs in vitro ([3]; preliminary data): 8 ± 4%
EC50 ([3]; α4β2 nAChR EC50, CHO cells stably expressing human α4β2 nAChRs, patch clamp, 24 °C, mean ± SEM (Fig. 1)): < 8 µM and 0.9 µM

CC(=O)OCC[N+](C)(C)C [Acetylcholine, reference compound]
Time spent at the bottom of the tank during NTT [1, 8]: no effect
concentration at 20 min [2, 9]: 20 ± 10 ng/g
% activation of α4β2 nAChR (normalized to nicotine) [3]: 100%

CN1CC=CC[C@H]1c1cccnc1 [Methylanatabine, (S)-N-methylanatabine]
IC50 [6]: 0.891 µM
Concentration effective in reducing anxiety-like behavior in NTT ([1]; 20-min treatment): 10 mg/L
Time spent at the bottom of the tank during NTT [1, 11]: anxiolytic-like effect
concentration at 20 min ([2]; in vivo): 1390 ± 560 ng/g
Relative brain level per 1 mg/L compound [2]: ~1 ng/mg tissue
EC50 [3, 10]: < 8 µM
Emax [3]: 26%
EC50 ([3]; α4β2 nAChR EC50): 6.2 µM

C1=CCC(c2cccnc2)NC1 (racemic) [Anatabine, ( ±)-Anatabine]
Binding to or regulation of other molecular targets [4]: did not bind or regulate the activities of other molecular targets
Binding to muscle-type nAChR in target profiling [5]: specific binding
Binding to α4β2 nAChR in target profiling [6]: specific binding
Freezing time during NTT ([1]; 0.3 mg/L): increased the freezing time during the first 3 min
Concentration effective in reducing anxiety-like behavior in NTT ([1]; 20-min treatment): 10 mg/L
Time spent at the bottom of the tank during NTT [1, 11]: significantly decreased the time spent at the bottom
Total distance traveled during NTT ([1]; lowest (0.3 mg/L) and highest (10 mg/L) concentrations): slight but significant reduction in the total distance traveled
concentration at 20 min ([2]; in vivo): 440 ± 150 ng/g
α7 nAChR agonist activity [7]: weak α7 nAChR agonist
Emax [3]: 80%

c1cnc2cc3c(cc2n1)[C@@H]1CNC[C@H]3C1 [Varenicline, reference compound]
concentration at 20 min [2, 9]: 450 ± 160 ng/g

O=C(c1ccc(Cl)o1)N1CC2CNCC2C1 (stereo not drawn) [AZD1446, 3-(5-chloro-2-furoyl)-3,7-diazabicyclo[3.3.0]octane, reference compound]
Time spent at the bottom of the tank during NTT / anxiolytic-like effect ([1]; 20-min treatment): decreased the time spent at the bottom at 2 and 4 min
Time spent at the bottom of the tank during NTT ([1]; 100 mg/L, 20-min treatment): decreased the time spent at the bottom for the first 2 min
Time spent at the top of the tank during NTT ([1]; 30 and 100 mg/L, 20-min treatment): increased the time spent at the top
Size of the reduction of anxiety-like behavior in NTT ([1]; lower two concentrations (30 and 100 mg/L)): ~ 10%
Relative brain level per 1 mg/L compound [2]: could not be detected; also recorded: at the limit of detection; also recorded: No value^d
EC50 [3, 10]: 7.9 µM and < 8 µM
Emax [3]: 100%
